Measurements published in ChEMBL document CHEMBL1152667, “Synthesis and radiopharmacological investigation of 3-[4'-[(18)F]fluorobenzylidene]indolin-2-one as possible tyrosine kinase inhibitor” (Bioorg Med Chem, 2009).

Tests used:
cells = conditions: Endothelial cell
[1] = molecular target: Vascular endothelial growth factor receptor 2 (Homo sapiens, UniProt P35968); assay: Inhibition of FLK1
Chain of Vascular endothelial growth factor receptor 2 (P35968 whole entry): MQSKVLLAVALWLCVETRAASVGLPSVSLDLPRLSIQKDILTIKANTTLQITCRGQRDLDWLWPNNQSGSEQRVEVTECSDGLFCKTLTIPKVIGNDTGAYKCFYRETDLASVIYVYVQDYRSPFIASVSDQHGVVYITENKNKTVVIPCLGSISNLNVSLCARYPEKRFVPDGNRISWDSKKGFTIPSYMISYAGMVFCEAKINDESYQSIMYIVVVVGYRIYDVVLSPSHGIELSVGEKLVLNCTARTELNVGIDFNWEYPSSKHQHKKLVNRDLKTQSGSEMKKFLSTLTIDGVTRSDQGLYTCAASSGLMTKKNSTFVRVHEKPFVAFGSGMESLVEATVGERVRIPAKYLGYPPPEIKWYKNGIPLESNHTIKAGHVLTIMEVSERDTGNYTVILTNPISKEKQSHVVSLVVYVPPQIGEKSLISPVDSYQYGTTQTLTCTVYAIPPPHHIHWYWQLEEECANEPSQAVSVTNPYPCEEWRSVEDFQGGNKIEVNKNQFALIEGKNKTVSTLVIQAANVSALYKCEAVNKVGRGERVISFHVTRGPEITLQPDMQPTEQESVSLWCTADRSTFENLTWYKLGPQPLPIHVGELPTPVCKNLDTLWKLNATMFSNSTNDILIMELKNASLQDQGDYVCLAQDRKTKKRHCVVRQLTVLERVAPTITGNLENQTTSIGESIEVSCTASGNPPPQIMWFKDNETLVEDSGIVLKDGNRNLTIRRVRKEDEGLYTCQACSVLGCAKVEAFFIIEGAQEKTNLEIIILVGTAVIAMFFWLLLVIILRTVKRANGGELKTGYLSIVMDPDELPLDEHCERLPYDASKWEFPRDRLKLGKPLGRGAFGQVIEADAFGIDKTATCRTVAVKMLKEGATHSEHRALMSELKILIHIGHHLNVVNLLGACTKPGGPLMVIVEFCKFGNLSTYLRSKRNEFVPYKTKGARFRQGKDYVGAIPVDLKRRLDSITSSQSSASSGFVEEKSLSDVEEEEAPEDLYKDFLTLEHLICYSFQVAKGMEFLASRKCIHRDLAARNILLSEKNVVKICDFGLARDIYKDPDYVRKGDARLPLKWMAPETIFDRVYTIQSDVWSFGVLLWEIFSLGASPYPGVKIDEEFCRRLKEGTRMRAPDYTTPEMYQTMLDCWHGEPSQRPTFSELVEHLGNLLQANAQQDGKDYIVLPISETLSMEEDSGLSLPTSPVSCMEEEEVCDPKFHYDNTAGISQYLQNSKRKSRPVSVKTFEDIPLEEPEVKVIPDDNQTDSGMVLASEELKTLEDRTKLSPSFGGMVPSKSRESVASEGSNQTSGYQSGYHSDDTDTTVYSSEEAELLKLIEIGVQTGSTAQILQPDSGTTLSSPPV

IC50 (cells) [µM]	IC50 [1] [µM]	Compound
5.1	9.6	O=C1Nc2ccccc2/C1=C/c1ccc(F)cc1
< 0.8		Cc1cc(C)c(/C=C2\C(=O)Nc3ccccc32)[nH]1 [SEMAXANIB]
